Experimental data as given in publication PMC11510897 (2024).

System: A5-S3G (DNA, aptamer) TCGGATAAAACCGGGCGGCGTTACACTAGGCG
Assay: biolayer interferometry
Conditions: 150 mM NaCl, 2 mM MgCl2; 50 mM Tris-HCl, pH 7.5; tested at 1000 nM in aptasensor

Question: How did the binding turn out when C=C1[C@@H](O)[C@@H]2O[C@]3(CC[C@H](/C=C/[C@@H](C)[C@@H]4CC(C)=C[C@@]5(O[C@H](C[C@@](C)(O)C(=O)O)CC[C@H]5O)O4)O3)CC[C@H]2O[C@@H]1[C@@H](O)C[C@H](C)[C@H]1O[C@@]2(CCCCO2)CC[C@H]1C was run?
Answer: no
